Measured values from patent publication US11351178B2, “Selective HDAC6 inhibitors” (ITALFARMACO S.P.A., priority 2017, dated 2022).

Legend:
recombinant human HDAC6 = target: T1, recombinant human HDAC6 (Homo sapiens, UniProt Q9UBN7); assay: Enzymatic screening on recombinant human HDAC6; format: biochemical; details: Table 2; read-out: HDAC6 IC50
T1 sequence (Q9UBN7 1-1215): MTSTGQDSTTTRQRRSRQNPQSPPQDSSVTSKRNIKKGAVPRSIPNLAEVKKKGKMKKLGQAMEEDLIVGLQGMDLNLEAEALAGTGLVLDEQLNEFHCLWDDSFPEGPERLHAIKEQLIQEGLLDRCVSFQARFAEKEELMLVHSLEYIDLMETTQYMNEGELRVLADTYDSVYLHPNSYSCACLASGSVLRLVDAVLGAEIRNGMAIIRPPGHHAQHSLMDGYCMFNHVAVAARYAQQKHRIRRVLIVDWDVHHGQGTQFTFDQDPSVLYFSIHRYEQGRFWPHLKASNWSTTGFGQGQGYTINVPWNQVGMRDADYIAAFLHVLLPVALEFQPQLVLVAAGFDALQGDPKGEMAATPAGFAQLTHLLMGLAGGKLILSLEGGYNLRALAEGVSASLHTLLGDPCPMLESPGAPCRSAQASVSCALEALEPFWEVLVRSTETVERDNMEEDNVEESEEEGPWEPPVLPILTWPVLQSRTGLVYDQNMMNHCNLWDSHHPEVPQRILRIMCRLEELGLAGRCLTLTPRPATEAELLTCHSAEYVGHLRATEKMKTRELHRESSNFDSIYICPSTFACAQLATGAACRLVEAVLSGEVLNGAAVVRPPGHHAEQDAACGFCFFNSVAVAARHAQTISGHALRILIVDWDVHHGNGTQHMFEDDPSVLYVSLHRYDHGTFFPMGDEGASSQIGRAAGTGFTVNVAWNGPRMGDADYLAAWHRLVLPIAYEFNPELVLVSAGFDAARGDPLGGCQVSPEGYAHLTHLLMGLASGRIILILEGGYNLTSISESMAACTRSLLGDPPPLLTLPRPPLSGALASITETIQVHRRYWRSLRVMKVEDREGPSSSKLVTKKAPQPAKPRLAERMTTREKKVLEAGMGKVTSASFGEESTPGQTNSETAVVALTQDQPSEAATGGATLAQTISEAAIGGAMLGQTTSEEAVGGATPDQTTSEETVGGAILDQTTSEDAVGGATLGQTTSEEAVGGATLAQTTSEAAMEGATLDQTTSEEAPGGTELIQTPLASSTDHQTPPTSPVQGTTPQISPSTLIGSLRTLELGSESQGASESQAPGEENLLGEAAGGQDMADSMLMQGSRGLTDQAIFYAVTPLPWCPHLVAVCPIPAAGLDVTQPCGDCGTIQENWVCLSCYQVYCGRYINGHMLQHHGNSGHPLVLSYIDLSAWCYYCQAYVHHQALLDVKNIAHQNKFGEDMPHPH
Procedure: Enzymatic activity on recombinant human HDAC6 and HDAC3 was evaluated (Table 2) for each synthesized compound.
After a period of incubation at 30° C. (incubation times vary for different isoforms and are shown in table 1) 25 μL of solution containing the substrate were added. As substrate, FLUOR DE LYS® deacetylase substrate (Enzo Life Sciences, cat #BML-K1104, FdL), FLUOR DE LYS®-Green substrate (Enzo Life Sciences, cat #BML-K1572 FdL_G) and trifluoroacetyl-L-lysine (Tfal)-2× concentrated solution in 25 mM Tris-HCl, pH 8, 130 mM NaCl 0.05% Tween-20 10% glycerol) were used. Following a reaction period at 30° C.

[1] = Stability to Phase I metabolism in rat S9 liver fraction; format: in vitro ADME; details: after 90 min, 37° C.
Procedure: Test compounds were incubated in rat and human liver S9 fraction at 37° C. up to 90 minutes in order to evaluate their stability to Phase I metabolism by hepatic enzymes. […] The reaction was stopped placing samples on ice bath and adding acidified acetonitrile. After centrifugation (10 minutes at 14000 rpm) an aliquot of the supernatant was diluted water, filtered with 0.45 μm regenerated cellulose syringe filters and injected in HPLC-UV or in LC-MS/MS. The percentages of the amount remaining at the various incubation times with respect to the initial amount were calculated. The intrinsic clearance was also calculated.

Stability in rat plasma = format: in vitro ADME; details: after 4 hours, 37° C.
Procedure: In order to evaluate the stability to circulating enzymes, test compounds were incubated in human and rat plasma at 37° C. in a thermostated oscillating bath. Each test compound was incubated at μM (50 μM when the samples were analysed by UV/HPLC, 1 or 2 μM when the samples were analysed by LC-MS/MS) concentration for 0, 15, 30 min and 1, 2 and 4 hours. The reaction was stopped placing tubes on ice bath and adding acidified acetonitrile. After centrifugation for 10 minutes at 14000 rpm, an aliquot of the supernatant was diluted with water, filtered with 0.45 μm syringe filters and injected in HPLC-UV or in LC-MS/MS. The percentages of amount remaining at the various times of incubation with respect to initial amount were calculated. The half-life in plasma was also calculated.

With `O=C(NO)c1ccc(Sc2nnc(-c3c[nH]c4ccccc34)n2Cc2ccco2)cc1` [comp. 25, 4-[[4-(2-furylmethyl)-5-(1H-indol-3-yl)-1,2,4-triazol-3-yl]sulfanyl]benzenecarbohydroxamic acid;2,2,2-trifluoroacetic acid] the IC50 (recombinant human HDAC6) was 47 nM, the “residual percentage in rat S9 fraction” value [1] was 9% and the “residual percentage in rat plasma” value (Stability in rat plasma) was 77%.
In the case of `O=C(NO)c1ccc(Cn2nnc(-c3ccc(Cl)cc3Cl)n2)cc1` [comp. 38, 4-[[5-(2,4-dichlorophenyl)tetrazol-2-yl]methyl]benzenecarbohydroxamic acid], the IC50 (recombinant human HDAC6) is reported as 10 nM and the “residual percentage in rat S9 fraction” value [1] is reported as 1%.
With `O=C(NO)c1ccc(Cn2nnc(-c3csc4ccccc34)n2)cc1` [comp. 42, 4-[[5-(benzothiophen-3-yl)tetrazol-2-yl]methyl]benzenecarbohydroxamic acid] the IC50 (recombinant human HDAC6) was 5 nM and the “residual percentage in rat S9 fraction” value [1] was 16%.
For `CSc1sc(-c2nnn(Cc3ccc(C(=O)NO)cc3)n2)c2c1C(=O)CC(C)(C)C2` [comp. 54, 4-[[5-(6,6-dimethyl-3-methylsulfanyl-4-oxo-5,7-dihydro-2-benzothiophen-1-yl)tetrazol-2-yl]methyl]benzenecarbohydroxamic acid], the IC50 (recombinant human HDAC6) was 18 nM and the “residual percentage in rat S9 fraction” value [1] was 0%.
With `O=C(NO)c1ccc(Cn2nnc(-c3cc4ccccc4s3)n2)cc1` [comp. 55, 4-[[5-(benzothiophen-2-yl)tetrazol-2-yl]methyl]benzenecarbohydroxamic acid] the IC50 (recombinant human HDAC6) was 6 nM and the “residual percentage in rat S9 fraction” value [1] was 46%.
`Cn1c(Sc2c(F)cc(C(=O)NO)cc2F)nnc1-c1cccc(N2CC[N+](C)([O-])CC2)c1` [comp. 114, 3,5-difluoro-4-[[4-methyl-5-[3-(4-methyl-4-oxido-piperazin-4-ium-1-yl)phenyl]-1,2,4-triazol-3-yl]sulfanyl]benzenecarbohydroxamic acid] gave an IC50 (recombinant human HDAC6) of 256 nM.
`Cn1c(Sc2c(F)cc(C(=O)NO)cc2F)nnc1-c1scc2c1OCCO2` [comp. 118, 4-[[5-(2,3-dihydrothieno[3,4-b][1,4]dioxin-5-yl)-4-methyl-1,2,4-triazol-3-yl]sulfanyl]-3,5-difluoro-benzenecarbohydroxamic acid] showed an IC50 (recombinant human HDAC6) of 6 nM.
Work on `O=C(NO)c1ccc(Cn2nnnc2-c2ncccn2)cc1` [comp. 124, 4-[(5-pyrimidin-2-yltetrazol-1-yl)methyl]benzenecarbohydroxamic acid] yielded an IC50 (recombinant human HDAC6) of 72 nM.
Compound `O=C(NO)c1ccc(Cn2nnc(-c3ccc(C(F)(F)F)cn3)n2)cc1` [comp. 126, 4-[[5-[5-(trifluoromethyl)-2-pyridyl]tetrazol-2-yl]methyl]benzenecarbohydroxamic acid] has an IC50 (recombinant human HDAC6) of 86 nM.
In the case of `O=C(NO)c1ccc(Cn2nnnc2-c2ccc(C(F)(F)F)cn2)cc1` [comp. 127, 4-[[5-[5-(trifluoromethyl)-2-pyridyl]tetrazol-1-yl]methyl]benzenecarbohydroxamic acid], the IC50 (recombinant human HDAC6) is reported as 9 nM.
For `O=C(NO)c1cc(F)c(Cn2nnc(-c3ccc(C(F)(F)F)cn3)n2)c(F)c1` [comp. 128, 3,5-difluoro-4-[[5-[5-(trifluoromethyl)-2-pyridyl]tetrazol-2-yl]methyl]benzenecarbohydroxamic acid], the IC50 (recombinant human HDAC6) was 45 nM.
With `O=C(NO)c1ccc(Cn2nnc(-c3ncc(C(F)(F)F)cc3N3CCOCC3)n2)cc1` [comp. 130, 4-[[5-[3-morpholino-5-(trifluoromethyl)-2-pyridyl]tetrazol-2-yl]methyl]benzenecarbohydroxamic acid] the IC50 (recombinant human HDAC6) was 837 nM.
In the case of `O=C(NO)c1ccc(Cn2nnnc2-c2ncc(C(F)(F)F)cc2N2CCOCC2)cc1` [comp. 131, 4-[[5-[3-morpholino-5-(trifluoromethyl)-2-pyridyl]tetrazol-1-yl]methyl]benzenecarbohydroxamic acid], the IC50 (recombinant human HDAC6) is reported as 57 nM.
In the case of `O=C(NO)c1ccc(Cn2nnc(Cc3ccccn3)n2)cc1` [comp. 132, 4-[[5-(2-pyridylmethyl)tetrazol-2-yl]methyl]benzenecarbohydroxamic acid;2,2,2-trifluoroacetic acid], the IC50 (recombinant human HDAC6) is reported as 25 nM.
Compound `O=C(NO)c1ccc(Cn2nnnc2Cc2ccccn2)cc1` [comp. 133, 4-[[5-(2-pyridylmethyl)tetrazol-1-yl]methyl]benzenecarbohydroxamic acid;2,2,2-trifluoroacetic acid] has an IC50 (recombinant human HDAC6) of 283 nM.
Work on `Cn1c(Sc2c(F)cc(C(=O)NO)cc2F)nnc1-c1cc(-c2cccs2)n(-c2ccccc2)n1` [comp. 136, 3,5-difluoro-4-[[4-methyl-5-[1-phenyl-5-(2-thienyl)pyrazol-3-yl]-1,2,4-triazol-3-yl]sulfanyl]benzenecarbohydroxamic acid] yielded an IC50 (recombinant human HDAC6) of 40 nM.
For `O=C(NO)c1cc(F)c(Sc2nnc(-c3ccc(F)cc3)n2CCN2CCOCC2)c(F)c1` [comp. 138, 3,5-difluoro-4-[[5-(4-fluorophenyl)-4-(2-morpholinoethyl)-1,2,4-triazol-3-yl]sulfanyl]benzenecarbohydroxamic acid], the IC50 (recombinant human HDAC6) was 12 nM and the “residual percentage in rat S9 fraction” value [1] was 79%.
With `O=C(NO)c1cc(F)c(Sc2nnc(-c3ccco3)n2Cc2ccccc2)c(F)c1` [comp. 142, 4-[[4-benzyl-5-(2-furyl)-1,2,4-triazol-3-yl]sulfanyl]-3,5-difluoro-benzenecarbohydroxamic acid] the IC50 (recombinant human HDAC6) was 20 nM.
With `O=C(NO)c1cc(F)c(Sc2nnc(-c3cccs3)n2Cc2ccccc2)c(F)c1` [comp. 143, 4-[[4-benzyl-5-(2-thienyl)-1,2,4-triazol-3-yl]sulfanyl]-3,5-difluoro-benzenecarbohydroxamic acid] the IC50 (recombinant human HDAC6) was 25 nM.
`O=C(NO)c1cc(F)c(Sc2nnc(-c3cccs3)n2Cc2ccco2)c(F)c1` [comp. 144, 3,5-difluoro-4-[[4-(2-furylmethyl)-5-(2-thienyl)-1,2,4-triazol-3-yl]sulfanyl]benzenecarbohydroxamic acid] gave an IC50 (recombinant human HDAC6) of 12 nM.
In the case of `Cn1c(Sc2c(F)cc(C(=O)NO)cc2F)nnc1-c1cc2ccccc2cn1` [comp. 148, 3,5-difluoro-4-[[5-(3-isoquinolyl)-4-methyl-1,2,4-triazol-3-yl]sulfanyl]benzenecarbohydroxamic acid], the IC50 (recombinant human HDAC6) is reported as 6 nM.
In the case of `Cn1c(Sc2c(F)cc(C(=O)NO)cc2F)nnc1-c1ccc(CN2CCCC2)o1` [comp. 207, 3,5-difluoro-4-[[4-methyl-5-[5-(pyrrolidin-1-ylmethyl)-2-furyl]-1,2,4-triazol-3-yl]sulfanyl]benzenecarbohydroxamic acid], the IC50 (recombinant human HDAC6) is reported as 7 nM.
For `COc1ccc(C2(c3nnc(Sc4c(F)cc(C(=O)NO)cc4F)n3C)CC2)cc1` [compound 104, 3,5-difluoro-4-[[5-[1-(4-methoxyphenyl)cyclopropyl]-4-methyl-1,2,4-triazol-3-yl]sulfanyl]benzenecarbohydroxamic acid], the IC50 (recombinant human HDAC6) was 48 nM.
Work on `O=C(NO)c1cc(F)c(Cc2noc(-c3ccc(CN4CCCC4)o3)n2)c(F)c1` [compound 202, 3,5-difluoro-4-[[5-[5-(pyrrolidin-1-ylmethyl)-2-furyl]-1,2,4-oxadiazol-3-yl]methyl]benzenecarbohydroxamic acid] yielded an IC50 (recombinant human HDAC6) of 9 nM.
